In US11707440B2 (priority 2017, dated 2023):
Where two headings read alike, the source gives them in different places.

Columns and labels:
[1] = tested on: subjects with MDD at imminent risk for suicide; experiment: MADRS total score, study […]2001; format: in vivo, human; conditions: ITT analysis set; for MADRS total score change, Diff. of LS Means (SE) minus placebo: ANCOVA LOCF
Excerpt: Primary efficacy variable/Primary Time point: Change from baseline (Day 1, predose) to Day 1, 4-hours postdose in MADRS total score. The MADRS consists of 10 items that cover all of the core depressive symptoms, with each item scoring from 0 (item is not present or is normal) to 6 (severe or continuous presence of the symptom). A higher score represents a more severe condition.
The primary efficacy endpoint is the change in MADRS total score from baseline to Day 1: 4-hours postdose. MADRS total scores range from 0 to 60. […] As this is a phase 2a proof-of-concept study, statistical significance is based on a two-sided alpha level of 0.20. All p-values presented in this document are two-sided.

[2] = tested on: subjects with MDD at imminent risk for suicide; experiment: Sustained response, response and remission based on MADRS, […]2001; format: in vivo, human; conditions: at least 50 percent reduction from baseline with onset on Day 1 maintained through Day 25; ITT analysis set
Excerpt: • a. Changes from baseline to Day 2 and Day 25 for the MADRS total score • b. Changes from baseline to Day 1 4-hours postdose, Day 2 and Day 25 for the MADRS Suicide Item • c. Changes from baseline to Day 1 4-hours postdose, Day 2, and Day 25 for the clinical global judgment of suicide risk from the Suicide Ideation and Behavior Assessment Tool (SIBAT) • d. Sustained response (Onset of Clinical Response) defined as at least 50% reduction from baseline in MADRS total score with onset on Day 1 that is maintained through the end of the double-blind phase (Day 25) • e. Changes from baseline to Day 1 4-hours postdose, Day 2, and Day 25 for the Beck Scale for Suicidal Ideation (BSS) • f. Changes from baseline to Day 1 4-hours postdose and Day 25 for the Beck Hopelessness Scale
Sustained response is defined as at least 50% reduction from baseline in MADRS total score with onset on Day 1: 4 hours postdose that is maintained through the end of the double-blind phase (Day 25). Four subjects in the esketamine 84 mg group and 2 subjects in the placebo group had sustained response throughout the double-blind phase.

[3] = tested on: subjects with MDD at imminent risk for suicide; experiment: Beck Scale for Suicidal Ideation (BSS), […]2001; format: in vivo, human; conditions: for BSS total score change, Diff. of LS Means (SE) minus placebo: ANCOVA LOCF
Method: The BSS is a 21-item self-reported instrument to detect and measure the severity of suicidal ideation in adults and adolescents aged 17 years and older. The BSS total score represents the severity of suicide ideation, and it is calculated by summing the ratings of the first 19 items; the total score ranges from 0 to 38, with a higher score representing greater suicide ideation. Increasing scores reflect increases in suicidal risk.

[4] = tested on: subjects with MDD at imminent risk for suicide; conditions: double-blind phase, safety analysis set
[5] = Baseline(DB), predose Day 1, ITT analysis set
[6] = Day 1(DB): 4H, LOCF, ITT analysis set
[7] = Day 2(DB), LOCF, ITT analysis set
[8] = End Point(DB), LOCF, ITT analysis set
[9] = TEAE in ≥5% of subjects in any treatment group
[10] = TEAE leading to study discontinuation

Compound: CN[C@]1(c2ccccc2Cl)CCCCC1=O [Esketamine 84 mg]
- MADRS total score, Mean (SD) ([1]; Baseline(DB), predose Day 1): 38.5 (6.17)
- MADRS total score, Median (Range) ([1]; Baseline(DB), predose Day 1): 38.0 (27; 49)
- MADRS total score change, Diff. of LS Means (SE) minus placebo ([1]; Day 1(DB): 4H): −5.3 (2.10)
- MADRS total score change from baseline, Mean (SD) ([1]; Day 1(DB): 4H, LOCF): −13.4 (9.03)
- MADRS total score change from baseline, Median (Range) ([1]; Day 1(DB): 4H, LOCF): −14.0 (−32; 1)
- MADRS total score, Median (Range) ([1]; Day 1(DB): 4H, LOCF): 23.0 (7; 48)
- MADRS total score change, Diff. of LS Means (SE) minus placebo ([1]; Day 2(DB)): −7.2 (2.85)
- MADRS total score change from baseline, Mean (SD) ([1]; Day 2(DB), LOCF): −19.3 (12.02)
- MADRS total score change from baseline, Median (Range) ([1]; Day 2(DB), LOCF): −19.0 (−41; 1)
- MADRS total score, Median (Range) ([1]; Day 2(DB), LOCF): 18.0 (3; 42)
- MADRS total score change, Diff. of LS Means (SE) minus placebo ([1]; End Point(DB)): −4.5 (3.14)
- MADRS total score change from baseline, Mean (SD) ([1]; End Point(DB), LOCF): −26.4 (14.52)
- MADRS total score change from baseline, Median (Range) ([1]; End Point(DB), LOCF): −25.0 (−46; 13)
- MADRS total score, Median (Range) ([1]; End Point(DB), LOCF): 8.0 (0; 44)
- Day 25 sustained response based on MADRS total score: No [2]: 30 (88.2%) subjects (%)
- Day 25 sustained response based on MADRS total score: Yes [2]: 4 (118%) subjects (%)
- BSS total score, Mean (SD) [3, 5]: 24.0 (5.45)
- BSS total score, Median (Range) [3, 5]: 25.0 (8; 33)
- BSS total score change, Diff. of LS Means (SE) minus placebo ([3]; Day 1(DB): 4H): −2.3 (2.29)
- BSS total score change from baseline, Mean (SD) [3, 6]: −10.2 (9.74)
- BSS total score change from baseline, Median (Range) [3, 6]: −8.0 (−33; 8)
- BSS total score, Median (Range) [3, 6]: 16.5 (0; 31)
- BSS total score change, Diff. of LS Means (SE) minus placebo ([3]; Day 2(DB)): −1.9 (2.30)
- BSS total score, Mean (SD) [3, 7]: 11.1 (10.12)
- BSS total score, Median (Range) [3, 7]: 13.0 (0; 34)
- BSS total score change, Diff. of LS Means (SE) minus placebo ([3]; End Point(DB)): −1.7 (2.15)
- BSS total score change from baseline, Median (Range) [3, 8]: −21.0 (−33; 8)
- BSS total score, Mean (SD) [3, 8]: 4.7 (9.03)
- BSS total score, Median (Range) [3, 8]: 0.0 (0; 34)
- Abdominal pain [4, 9]: 0 no. subjects (%)
- Acne [4, 9]: 2 (5.7%) no. subjects (%)
- Agitation [4, 9]: 3 (8.6%) no. subjects (%)
- Anxiety [4, 9]: 6 (17.1%) no. subjects (%)
- Blepharospasm [4, 9]: 0 no. subjects (%)
- Blood pressure increased [4, 9]: 2 (5.7%) no. subjects (%)
- Constipation [4, 9]: 0 no. subjects (%)
- Diarrhea [4, 9]: 3 (8.6%) no. subjects (%)
- Diplopia [4, 9]: 2 (5.7%) no. subjects (%)
- Dissociation [4, 9]: 11 (31.4%) no. subjects (%)
- Dizziness [4, 9]: 12 (34.3%) no. subjects (%)
- Dizziness postural [4, 9]: 2 (5.7%) no. subjects (%)
- Dry mouth [4, 9]: 3 (8.6%) no. subjects (%)
- Dysgeusia [4, 9]: 11 (31.4%) no. subjects (%)
- Ear and labyrinth disorders [4, 9]: 9 (25.7%) no. subjects (%)
- Epistaxis [4, 9]: 0 no. subjects (%)
- Euphoric mood [4, 9]: 4 (11.4%) no. subjects (%)
- Eye disorders [4, 9]: 7 (20.0%) no. subjects (%)
- Fatigue [4, 9]: 2 (5.7%) no. subjects (%)
- Feeling abnormal [4, 9]: 3 (8.6%) no. subjects (%)
- Feeling cold [4, 9]: 2 (5.7%) no. subjects (%)
- Flatulence [4, 9]: 1 (2.9%) no. subjects (%)
- Gastrointestinal disorders [4, 9]: 19 (54.3%) no. subjects (%)
- General disorders and administration site conditions [4, 9]: 10 (28.6%) no. subjects (%)
- Headache [4, 9]: 11 (31.4%) no. subjects (%)
- Hyperacusis [4, 9]: 2 (5.7%) no. subjects (%)
- Hyperhidrosis [4, 9]: 2 (5.7%) no. subjects (%)
- Hypoesthesia [4, 9]: 3 (8.6%) no. subjects (%)
- Hypoesthesia oral [4, 9]: 2 (5.7%) no. subjects (%)
- Infections and infestations [4, 9]: 1 (2.9%) no. subjects (%)
- Insomnia [4, 9]: 3 (8.6%) no. subjects (%)
- Intranasal paranesthesia [4, 9]: 0 no. subjects (%)
- Investigations [4, 9]: 5 (14.3%) no. subjects (%)
- Nasal congestion [4, 9]: 1 (2.9%) no. subjects (%)
- Nasal discomfort [4, 9]: 3 (8.6%) no. subjects (%)
- Nausea [4, 9]: 13 (37.1%) no. subjects (%)
- Nervous system disorders [4, 9]: 25 (71.4%) no. subjects (%)
- Oropharyngeal pain [4, 9]: 2 (5.7%) no. subjects (%)
- Panic attack [4, 9]: 0 no. subjects (%)
- Paresthesia [4, 9]: 6 (17.1%) no. subjects (%)
- Paresthesia oral [4, 9]: 2 (5.7%) no. subjects (%)
- Pharyngeal hypoesthesia [4, 9]: 2 (5.7%) no. subjects (%)
- Pollakiuria [4, 9]: 0 no. subjects (%)
- Psychiatric disorders [4, 9]: 20 (57.1%) no. subjects (%)
- Rash [4, 9]: 1 (2.9%) no. subjects (%)
- Renal and urinary disorders [4, 9]: 1 (2.9%) no. subjects (%)
- Respiratory, thoracic and mediastinal disorders [4, 9]: 9 (25.7%) no. subjects (%)
- Rhinalgia [4, 9]: 0 no. subjects (%)
- Rhinorrhoea [4, 9]: 0 no. subjects (%)
- Sedation [4, 9]: 6 (17.1%) no. subjects (%)
- Skin and subcutaneous tissue disorders [4, 9]: 5 (14.3%) no. subjects (%)
- Somnolence [4, 9]: 4 (11.4%) no. subjects (%)
- Suicidal ideation [4, 9]: 2 (5.7%) no. subjects (%)
- Throat irritation [4, 9]: 3 (8.6%) no. subjects (%)
- Tinnitus [4, 9]: 2 (5.7%) no. subjects (%)
- Toothache [4, 9]: 0 no. subjects (%)
- Upper respiratory tract infection [4, 9]: 0 no. subjects (%)
- Vertigo [4, 9]: 4 (11.4%) no. subjects (%)
- Vision blurred [4, 9]: 3 (8.6%) no. subjects (%)
- Vomiting [4, 9]: 7 (20.0%) no. subjects (%)
- Weight increased [4, 9]: 2 (5.7%) no. subjects (%)
- Aggression [4, 10]: 1 (2.9%) no. subjects (%)
- Agitation [4, 10]: 1 (2.9%) no. subjects (%)
- Cardiac disorders [4, 10]: 1 (2.9%) no. subjects (%)
- Dissociative disorder [4, 10]: 0 no. subjects (%)
